Results published in patent US20190008864A1, “PHARMACEUTICAL COMPOSITION CONTAINING GPR119 LIGAND AS EFFECTIVE INGREDIENT FOR PREVENTING OR TREATING NON-ALCOHOLIC STEATOHEPATITIS” (PHARMEDIX.CO., LTD., priority 2014, published 2019).

Key:
iNOS protein = iNOS protein expression after LPS stimulation in RAW264.7 cells (western blot); assay type: cell-based, mouse; settings: RAW264.7, 3 μM, 10 ng/ml LPS, 6 hours
Description: RAW264.7 cells cultured in 6-well plates were stabilized for 12 hours in a serum-free medium, and then exposed to 3 μM of MBX-2982 and 10 ng/ml of LPS. After 6 hours, the cells were lysed in cytolysis buffer and voltexed. Centrifugation was conducted at 14,000 rpm and 4° C. for 20 minutes. A supernatant of the centrifuged solution was collected and then subjected to protein quantification by the Bradford assay. 15 μg of a protein thereof was electrophoresed on an SDS polyacrylamide gel, and then expression changes of iNOS and COX-2 proteins were measured by western blotting. Expression changes in triplicate experiments were measured with a densitometer and are shown as graphs.
As described above, RAW264.7 cells, which were derived from a mouse macrophage cell line, was subjected to LPS stimulation, and then inflammatory marker changes therein were evaluated. Results are illustrated in FIG. 17.

[1] = system: fatty liver model induced by a high-fat diet; assay: Fatty liver model induced by high-fat diet; assay type: in vivo, C57BL/6J mice
Source text: In the present invention, a high fat diet (HFD: 60% fat calories, Research diets, D12492, US) was used as an obesity induction diet.
Six-week-old male C57BL/6J mice (Central Lab. Animal Inc., Seoul, Korea) were acclimated to an experimental environment for one week while being fed solid food, and then randomly divided into a control group and an experimental group for a high-fat diet using a randomized block design. The animal groups were fed for 12 weeks, and thus, fatty liver animal models were established. Fatty liver development was determined according to blood biochemical and histochemical analysis methods. The mice were orally fed with the high-fat diet only for six weeks, and in combination with a GPR119 ligand (10 mg/kg) suspended in 40% PEG400 once a day for five days every week. Choline-deficient, amino acid-fixed high-fat diet steatohepatitis models were prepared by feeding six-week-old male C57BL/6J mice (Central Lab. Animal Inc., Seoul) with a diet containing 60 kcal fat and 0.1% methionine for four weeks. After terminating the experiment, experimental animals fasted for 12 hours or more. Subsequently, blood, liver, and adipose tissues in intestines (epididymal fat, kidney-surrounding fat) were collected from the animals that had been anesthetized with diethyl ether and then washed with a 0.1 M phosphate buffered saline (pH 7.4), followed by being weighed. Blood collected from abdominal aortas was centrifuged at 3000 rpm for 20 minutes using SST tubes to separate serum.
A total cholesterol concentration and a total glucose concentration in serum from each of the aforementioned experimental animals raised for 12 weeks were measured as follows. Each of the total cholesterol concentration and the total glucose concentration in serum was measured twice by means of a commercial measurement kit (Bio Clinical Systems). The amount of alanine aminotransferase (ALT) in blood used as a liver function index was measured by means of a commercial analysis kit (Bio Clinical Systems, Korea).
The collected liver tissues were fixed with a 10% neutral formalin solution and then subjected to a common fixation procedure and dehydration process, followed by embedding the same in paraffin. The embedded tissues were sectioned to a thickness of 4 μm and stained with H&E. The stained tissues were observed by means of an optical microscope.
A predetermined amount of each of the liver tissues was homogenized in liquid nitrogen and a cell lysis buffer in a mortar, and then a lysed tissue solution was transferred to a new tube, followed by vortexing. […] A middle layer of the centrifuged solution was collected and then subjected to protein quantification by the Bradford assay. […] Expression changes of FAS and SREBP-1c proteins were measured by western blotting. […]

[2] = system: non-alcoholic steatohepatitis (NASH) animal models induced by methionine-choline deficient diet; assay: NASH animal model induced by methionine-choline deficient diet; assay type: in vivo, C57BL/6J mice; settings: MCD diet 4 weeks, 10 and 30 mg/kg oral
Source text: A liver fibrosis-inducing diet in the present invention is a methionine and choline-deficient (MCD) diet. Six-week-old male C57BL/6J mice (Central Lab. Animal Inc., Seoul, Korea) were acclimated to an experimental environment for one week while being fed solid food, and then randomly divided into a control group and an experimental group for the MCD diet using a randomized block design. The animal groups were fed for 4 weeks, and thus, liver fibrosis animal models were established. Liver fibrosis development was determined according to blood biochemical and histochemical analysis methods. The mice were orally fed once a day for five days every week with a GPR119 ligand (10 mg/kg and 30 mg/kg), which was suspended in 40% PEG400, in combination with the MCD diet. After terminating the experiment, the experimental animals fasted for 12 hours or more. Subsequently, blood and liver samples were collected from the animals, which had been anesthetized with diethyl ether, and then washed with a 0.1 M phosphate buffered saline (pH 7.4), followed by being weighed. […] Serum Lactate dehydrogenase (LDH) from the experimental animals raised for 4 weeks was measured as follows. The serum LDH was measured using a commercially available measurement kit (Bio Clinical system). […] Steatosis, ballooning, and lobular inflammation were blindly assessed by pathologists.

## CCc1cnc(N2CCC(c3nc(COc4ccc(-n5cnnn5)cc4)cs3)CC2)nc1 [MBX2982, 4-((4-(1H-tetrazol-1-yl)phenoxy)methyl)-2-(1-(5-ethylpyrimidin-2-yl)piperidin-4-yl)thiazole]
iNOS protein
  expression of iNOS protein: decreased
[1]; animal models fed with a high-fat diet
  fatty liver development: completely inhibited
[1]; high-fat diet mice, 10 mg/kg oral
  fat weight in the tissue: significantly decreased
[1]; mice administered ligand, compared to a control group
  mRNA level of GPR119 in liver: seven-fold increased
[2]
  lobular inflammation (NAFLD activity score): inhibited
  other markers (steatosis, ballooning, serum LDH): did not show significant changes
